From ChEMBL document CHEMBL3421602, “Small molecule discoidin domain receptor kinase inhibitors and potential medical applications” (J Med Chem, 2015) come the findings set out here.

Numbered stars: 1 amine (or outer) side, 2 acyl side, 3 side chain; on linkers, the order of the positions; unused ones are H or OH. Bridge positions count the residues as written; N and C are the ends. Square brackets hold non-standard residues; d marks the D form. Peptide text beside a SMILES is read from it. I, II: the chains in the order shown. Actinocin(9to1) = Cc1c2oc3c(C)ccc(C(=O)[*:1])c3nc-2c(C(=O)[*:2])c(N)c1=O; NMeV = CN[C@H](C(=O)O)C(C)C; Sar = CNCC(=O)O

The target of test [1] is T1, Discoidin domain-containing receptor 2 (Homo sapiens, UniProt Q16832).
T1 sequence (Q16832 whole entry): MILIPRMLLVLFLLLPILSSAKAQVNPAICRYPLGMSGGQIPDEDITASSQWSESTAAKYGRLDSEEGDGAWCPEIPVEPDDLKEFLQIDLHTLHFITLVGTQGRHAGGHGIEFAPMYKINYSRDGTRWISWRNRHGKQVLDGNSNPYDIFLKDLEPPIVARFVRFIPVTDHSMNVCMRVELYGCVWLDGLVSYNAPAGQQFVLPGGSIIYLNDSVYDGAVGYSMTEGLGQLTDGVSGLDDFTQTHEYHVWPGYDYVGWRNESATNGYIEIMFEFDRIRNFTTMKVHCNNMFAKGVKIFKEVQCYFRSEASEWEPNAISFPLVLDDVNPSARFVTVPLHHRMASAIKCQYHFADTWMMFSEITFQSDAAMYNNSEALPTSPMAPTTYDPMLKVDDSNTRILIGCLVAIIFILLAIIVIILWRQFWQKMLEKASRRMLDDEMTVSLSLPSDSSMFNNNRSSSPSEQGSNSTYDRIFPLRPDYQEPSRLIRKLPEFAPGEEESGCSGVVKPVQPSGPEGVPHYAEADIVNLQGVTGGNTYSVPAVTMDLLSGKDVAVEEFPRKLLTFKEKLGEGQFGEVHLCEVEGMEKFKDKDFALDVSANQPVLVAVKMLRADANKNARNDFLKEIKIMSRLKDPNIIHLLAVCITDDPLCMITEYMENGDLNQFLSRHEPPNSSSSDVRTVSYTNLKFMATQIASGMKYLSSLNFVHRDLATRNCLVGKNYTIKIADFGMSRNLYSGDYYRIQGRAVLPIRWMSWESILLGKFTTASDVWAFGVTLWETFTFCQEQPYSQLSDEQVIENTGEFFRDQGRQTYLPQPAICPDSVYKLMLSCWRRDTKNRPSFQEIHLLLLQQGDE
The test can be described thus: Inhibition of human DDR2 expressed in HEK293 cells assessed as reduction in collagen-1-induced DDR2 tyrosine phosphorylation pre-incubated for 30 mins by immunoblotting method. The format is cell-based.

The target of test [2] is T1, Discoidin domain-containing receptor 2. The test can be described thus: Inhibition of human DDR2 expressed in HEK293 cells assessed as reduction in collagen-2-induced DDR2 phosphorylation. The format is cell-based.
Test [3] relates to U2OS. The test can be described thus: Inhibition of cell proliferation of human U2OS cells over-expressing DDR1.
Test [4] concerns the target T1, Discoidin domain-containing receptor 2. The experiment in a line: Binding affinity to DDR2 (unknown origin) by active-site dependent competition binding assay.
For test [5] the target is unchanged. The test can be described thus: Inhibition of recombinant activated DDR2 tyrosine kinase domain (unknown origin) using histone H2B peptide substrate and [32P]ATP incubated for 15 mins.
For test [6] the target is unchanged. The test can be described thus: Inhibition of recombinant non-activated DDR2 tyrosine kinase domain (unknown origin) using histone H2B peptide substrate and [32P]ATP incubated for 15 mins.
Test [7] addresses T2, Epithelial discoidin domain-containing receptor 1 (Homo sapiens, UniProt Q08345). The experiment in a line: Inhibition of human DDR1 in doxycycline-stimulated human U2OS cells assessed as inhibition of collagen-1-induced autophosphorylation incubated for 1 hr. It counts as cell-based.
The target of test [8] is T2, Epithelial discoidin domain-containing receptor 1. The test can be described thus: Inhibition of human DDR1 kinase domain (601 to 913 residues) expressed in Sf9 cells by enzymatic kinase assay.

As usually defined, the IC50 is the concentration at which inhibition is half-maximal. By Kd is commonly meant the free concentration of one partner at which half of the binding sites on the other are occupied at equilibrium, for simple one-to-one binding. Low values mean tighter binding, high ones weaker binding.

T2 sequence (Q08345 whole entry, the tested form may be a part): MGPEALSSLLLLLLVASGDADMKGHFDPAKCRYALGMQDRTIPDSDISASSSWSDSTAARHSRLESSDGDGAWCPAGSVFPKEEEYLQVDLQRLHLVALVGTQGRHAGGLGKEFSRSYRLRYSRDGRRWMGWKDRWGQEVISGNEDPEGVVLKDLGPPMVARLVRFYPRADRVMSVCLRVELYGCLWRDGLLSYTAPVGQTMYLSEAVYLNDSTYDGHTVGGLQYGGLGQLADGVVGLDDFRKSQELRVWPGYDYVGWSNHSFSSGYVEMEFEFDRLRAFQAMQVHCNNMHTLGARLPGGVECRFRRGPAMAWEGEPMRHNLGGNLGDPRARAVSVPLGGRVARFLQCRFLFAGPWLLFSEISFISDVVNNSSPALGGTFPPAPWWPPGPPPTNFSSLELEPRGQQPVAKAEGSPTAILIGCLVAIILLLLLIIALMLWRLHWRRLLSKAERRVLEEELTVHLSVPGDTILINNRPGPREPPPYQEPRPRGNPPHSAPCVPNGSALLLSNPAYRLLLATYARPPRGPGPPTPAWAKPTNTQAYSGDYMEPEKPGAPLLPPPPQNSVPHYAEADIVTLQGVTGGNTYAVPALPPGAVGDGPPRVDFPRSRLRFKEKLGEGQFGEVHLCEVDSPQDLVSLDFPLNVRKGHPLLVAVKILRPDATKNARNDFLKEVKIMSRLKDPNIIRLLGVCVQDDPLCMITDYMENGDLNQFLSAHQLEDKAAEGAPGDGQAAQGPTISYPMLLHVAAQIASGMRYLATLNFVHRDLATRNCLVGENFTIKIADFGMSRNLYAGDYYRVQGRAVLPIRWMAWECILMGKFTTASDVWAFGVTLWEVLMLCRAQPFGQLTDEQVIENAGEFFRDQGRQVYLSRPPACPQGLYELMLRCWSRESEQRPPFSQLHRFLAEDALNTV

On to `Cc1c2oc3c(C)ccc(C(=O)N[C@@H]4C(=O)N[C@H](C(C)C)C(=O)N5CCC[C@H]5C(=O)N(C)CC(=O)N(C)[C@@H](C(C)C)C(=O)O[C@@H]4C)c3nc-2c(C(=O)N[C@@H]2C(=O)N[C@H](C(C)C)C(=O)N3CCC[C@H]3C(=O)N(C)CC(=O)N(C)[C@@H](C(C)C)C(=O)O[C@@H]2C)c(N)c1=O` [DACTINOMYCIN] (I: T[dV]P[Sar][NMeV] / II: T[dV]P[Sar][NMeV]; ester I:1-I:C, II:1-II:C; linker I:N-II:N via Actinocin(9to1)), for which, in test [1], the IC50 was 9 µM.
Consider `CNC(=O)c1cc(Oc2ccc(CNC(=O)Nc3cc(Cl)ccc3OC)cc2C)ccn1`, for which, in test [2], the IC50 stood at 0.03 µM.
Regarding `CCS(=O)(=O)c1ccc(Cl)cc1CNC(=O)c1ccc(CN2CCN(C)CC2)c(C(F)(F)F)c1`, in test [3], inhibition was half-maximal at 0.44 µM (IC50).
Take `CCc1ccc(C(=O)Nc2cc(CN3CCN(C)CC3)cc(C(F)(F)F)c2)cc1C#Cc1cnc2ccnn2c1`: the dissociation constant (Kd) in test [4] was 0.0006 µM.
Take `Oc1cccc(Nc2ccnc3cc(-c4cccc(CN5CCOCC5)c4)sc23)c1`: the 50% inhibitory concentration (IC50) in test [5] was 0.006 µM; in test [6] it was 0.145 µM.
With `Cn1cc(C(F)(F)F)cc(NC(=O)NCc2ccc(Oc3ccnc4c3CNC(=O)N4)cc2)c1=O`, the half-maximal inhibitory concentration (IC50) in test [2] was found to be 0.015 µM.
For `CCN1CCN(Cc2ccc(C(=O)Nc3ccc(C)c(NCc4cnc5[nH]ccc5c4OC)c3)cc2C(F)(F)F)CC1`, the IC50 in test [7] was 0.009 µM; in test [8] it was 0.047 µM.
